Tests used:
[1] = test system: RAW 264.7 (murine macrophages); experiment: Superoxide anion generation (DHE fluorescence) in murine macrophages stimulated with LPS; assay type: cell-based; conditions: FIG. 3; LPS 25 μM/mL, 60 min; Ibu 10, 50, 100 μM alone; Arg 50 μM alone; PBS
Method: The selected method measures the fluorescence of DHE generated from its interaction with superoxide anion (O2^−) to determine the inhibitory effect of the different formulations on the generation of O2^− in murine macrophages that have been stimulated with LPS. This method has been selected because, as Chen et al. [Chen, J., et al. (2013). Analysis of kinetics of dihydroethidium fluorescence with superoxide using xanthine oxidase and hypoxanthine assay. […]
After this incubation, basal fluorescence was measured on a Fluoroskan Ascent plate reader, Labsystems using λex=485 nm and λem=538 nm. […] The fluorescence of the plate was then re-recorded using the same filter as in the basal condition.
For the analysis of the results, the value corresponding to the basal fluorescence for each well was subtracted from each final time value. […]
Murine macrophages were stimulated with LPS (25 μM/mL) and treated with arginine 50 μM alone or with different concentrations of alkaline hypertonic ibuprofen (10, 50, and 100 μM) in PBS saline solution. The cells were loaded with dihydroethidium (DHE) for 30 min at 37° C. and after 60 min of stimulation, normalized fluorescence was determined with the basal reading. […]

[2] = test system: patients with cystic fibrosis; conditions: CF patients, cited from earlier work

SMILES | inhibition of LPS-stimulated generation of superoxide anion [1] | FEV1 increase (average) ([2]; inhalation of 5 mL of 100 mg/mL twice daily, −8 ml after saline, difference not statistically significant) [mL] | exhaled NO ([2]; inhalation)
N=C(N)NCCC[C@H](N)C(=O)O [Arginine] | not inhibited | – | –
CC(C)Cc1ccc(C(C)C(=O)O)cc1 (stereo not shown) [Ibuprofen] | not inhibited | – | –
N=C(N)NCCC[C@H](N)C(=O)O [L-arginine] | – | 56 | significant increase

Reference: US12702644B2, “Pharmaceutical composition comprising ibuprofen and arginine” (priority 2021, dated 2026)
